Experimental data published in patent US10272182B2, “Copolymer membrane for high-dose chemotherapy delivery during transarterial chemoembolization” (THE REGENTS OF THE UNIVERSITY OF CALIFORNIA, priority 2014, dated 2019).

Experiment: Hepatic artery IAC infusion of dox in swine without CF device
Format: in vivo
Conditions: 50 mg dox (2 mg/mL) into the liver via hepatic artery over 10 minutes
Procedure: In vivo pilot experiments on swine were performed to establish an animal model and proof-of-concept for toxicity reduction. Farm swine (n=3, 30 kg) received humane care in compliance with the UCSF IACUC. Interventional procedures included anesthesia (Isoflurane), X-ray fluoroscopy, percutaneous transarterial catheterization of the hepatic artery, and percutaneous transveous catheterization of the vena cava. Heparin was […] in order to prevent thrombus formation. Heart rate, electrocardiogram, and O2-saturation were continuously monitored during the interventions. Animals were euthanized immediately after the procedures.
In the second animal, a CF device was not deployed, but rather a hepatic artery IAC infusion of dox was performed with subsequent sampling of blood at various times and positions throughout the venous system. This was performed in order to validate a hepatic dox IAC pharmacokinetic experimental model, measuring venous dox concentrations over time via a developed liquid chromatography-mass spectroscopy assay (Pacific Biolabs, Hercules, Calif.). In this animal, a microcatheter was advanced into the hepatic artery via standard access from a right femoral artery approach using fluoroscopy and contrast as needed. Via percutaneous UV access, central catheters were positioned with tips in the suprahepatic IVC and right hepatic vein. […]

COc1cccc2c1C(=O)c1c(O)c3c(c(O)c1C2=O)C[C@@](O)(C(=O)CO)C[C@@H]3O[C@H]1C[C@H](N)[C@H](O)[C@H](C)O1 [dox, doxorubicin]
hemodynamic changes during the procedure: no hemodynamic changes
